According to patent US12728126B2, “Compounds for inhibiting LY6K and methods of using same” (The Henry M. Jackson Foundation for the Advancement of …, priority 2020, dated 2026):

Tests used:
IFNγ/Stat1 signaling = assay: Western blot of IFNγ induced phosphorylation of Stat1; type: cell-based; settings: serum starved, IFN γ (100 ng/mL), 2 μM, 30 minutes
Description: (§1) Cells were serum starved overnight and then treated with TGF 13 (10 ng/mL) or IFN γ (100 ng/mL) in the presence of 2 μM NSC243928 or NSC11150 for 30 minutes followed by protein analysis using western blot. […] NSC243928 inhibited the TGFβ1 induced phosphorylation of Smad2/3; NSC11150 had no effect on TGFβ1/Smad2/3 signaling. NSC11150 inhibited IFNγ induced phosphorylation of Stat1; NSC243928 had no effect on IFNγ/Stat1 signaling.

[1] = test system: 4T1 mouse mammary tumor cells; assay: 4T1 syngeneic mammary tumor model, tumor growth in vivo; set-up: species or system Balb/c mice; settings: 4T1 model
Description: A syngeneic mammary tumor model is used to show the effect of Ly6K small molecule inhibitors on tumor growth in vivo. 4T1 mouse model is an orthotopic allograft model (also called the spontaneous tumor metastasis model). In the 4T1 mouse model, 4T1 mouse mammary tumor cells were injected into the second mammary gland of syngenetic Balb/c mice, and the spontaneous metastasis to the lung were analyzed with a colonogenic assay. 4T1 mice bearing 50-70 mm^3 tumors were treated with NSC243928 or NSC11150 every second day at a dosage of 5 mg/kg in saline. Each group had 10 mice. Tumor measurements were performed using a Vernier caliper. The tumor volumes were calculated using equation ½*length*(width*width).

TGFβ1/Smad2/3 signaling = assay: Western blot of TGFβ1 induced phosphorylation of Smad2/3; type: cell-based; settings: serum starved, TGFβ1 (10 ng/mL), 2 μM, 30 minutes
Description: as §1

PD-L1 [2] = assay: PD-L1 measured in live cells after IFN γ treatment; type: cell-based; settings: serum starved, 100 ng/ml IFN γ, 2 μM drug
Description: Cells were serum starved and treated with 100 ng/ml IFN γ with 2 μM drugs. PD-L1 was measured in live cells (using a zombie live-dead stain). The graph was plotted from three experiments. A 7.9-fold decrease in the number of cells with high PD-L1 expression was observed.

PD-L1 [3] = assay: PD-L1 protein expression in control cells; type: cell-based; settings: 2 μM
MDA-MB-231 cells = assay: Cell-Titer-Blue assay, control vs LY6K knockdown MDA-MB-231 cells; type: cell-based
Description: (§2) For cell death assay, cells were plated in a black walled 96-well plate and treated with the indicated concentration of drugs for 24 h. Cell-Titer-Blue reagent was added, and the Cytation 5 microplate reader (BioTek, Winooski, VT, USA) was used to measure fluorescence intensity (excitation 560(10) nm, emission 590(20) nm) according to manufacturer's instructions.
To confirm the effect of NSC243928 in LY6K-expressing cells, it was observed the parental control and sh2 LY6K knockdown in MDA-MB-231 cells, a triple negative breast cancer cell line. These cells were generated as previously described. To test the effect of NSC243928 on cell growth, the cells were seeded into 96-well plates and treated with 2 μM of the compound for 24 h. A CTB assay was then performed according to manufacturer's instructions to determine the cell growth.
as §1

[4] = test system: Hs-578-T cells, BT-549 cells, and OVCAR-8 cells; assay: In vitro cell growth inhibition in other cancer cell types (FIG. 2); type: cell-based
Description: as §2
Cell culture and viability assay are as described herein. […] The inhibitory effect of a crystalline form of Compound I on cell growth in vitro is further illustrated in other cancer cells types, including Hs-578-T cells, BT-549 cells, and OVCAR-8 cells (FIG. 2).

| Compound | IFNγ induced phosphorylation of Stat1 (IFNγ/Stat1 signaling) | day following treatment at which inhibition on tumor growth is statistically significant ([1]; 5 mg/kg every second day, P<0.005) [days] | inhibitory effect on tumor growth in vivo ([1]; 5 mg/kg in saline every second day) | TGFβ1 induced phosphorylation of Smad2/3 (TGFβ1/Smad2/3 signaling) | inhibitory effect on cells with high expression of PD-L1 (PD-L1 [2]) | decrease in the number of cells with high PD-L1 expression (PD-L1 [2]; live cells, three experiments) [fold] | PD-L1 protein expression (PD-L1 [3]) | cell death / cell growth in control MDA-MB-231 cells (MDA-MB-231 cells; 2 μM, 24 h, control cells) | cell death in Ly6K knockdown cells (MDA-MB-231 cells; 100 μM, Ly6K knockdown cells (data not shown)) | cell death in control cells (MDA-MB-231 cells; 100 μM, control cells (data not shown)) | inhibitory effect on cell growth at different concentrations (comparison) ([4]; crystalline form compared, different concentrations) | IC50 ([4]; range over the cell types of FIG. 2) [µM] |
| --- | --- | --- | --- | --- | --- | --- | --- | --- | --- | --- | --- | --- |
| Oc1ccc(Cc2ccc(Cl)cc2)c(O)c1 [Compound II, 4-(4-chlorobenzyl)benzene-1,3-diol] | inhibited | 11 | significant inhibitory effects | had no effect | showed inhibitory effect | 7.9 | inhibition of PD-L1 expression | did not show significant effect on cell death | induced cell death | induced cell death |  |  |
| CCS(=O)(=O)Nc1ccc(Nc2c3ccccc3nc3ccccc23)c(OC)c1 [crystalline form of Compound I, N-(4-(acridin-9-ylamino)-3-methoxyphenyl)ethanesulfonamide] |  |  |  |  |  |  |  |  |  |  | same or better inhibitory effect | 4.17 to 7.65 |
